The results in this text go back to patent US9789096B2, “Methods and compositions for selective and targeted cancer therapy” (Board of Regents of the University of Texas System, priority 2013, dated 2017).

One assay has as its system H2122. Briefly: Cell viability dose-response, H2122. The assay is classed as cell-based, human. The settings on record: for pIC50: 3-fold increments, in duplicate, read-out: toxicity data, H2122; for IC50: NCI-H2122, Tables 3 and 4, read-out: IC50 (uM) vs indicated non-small cell lung cancer cell line H2122. The method, then: (§1) FIG. 6A. […] Cell viability is plotted vs. compound concentration. Compound was added to cells plated at 15% confluence in 96-well plates in RPMI-1640 media supplemented with 5% Fetal Bovine Serum and 2 mM L-Glutamine. After 4 days of incubation, ATP levels were measured using Cell Titer Glo (Promega). Data are presented as the average of 2 replicates ±SEM.
(§2) Selectivity may be measured by the half maximal inhibitory concentration (IC50), which, as used herein, is a measure of the effectiveness of a compound in killing cells. This quantitative measure indicates how much of a particular compound is needed to kill a particular cell population by half (e.g., as indicated by the amount of ATP). […] The IC50 can be determined by constructing a dose-response curve. The lower the IC50, the higher the potency, and the greater the difference between IC50 values for different cell lines (e.g., sensitive lines vs. insensitive lines, and sensitive lines vs. normal lines) the greater the selectivity. […]
(§3) With this information, we synthesized and tested a series of small molecules derived in conception from the oxalamide and chromone scaffold including N-acyl ureas, as shown in Tables 6-8. Each compound was tested in a 12-point dose-response study starting at 50 micromolar and decreasing in 3-fold increments to sub-nanomolar concentrations, in duplicate. Additionally, one or more additional cell line was tested in the same way.

Another assay concerns H1819. Briefly: Cell viability dose-response, H1819. The settings on record: for pIC50: 3-fold increments, in duplicate, read-out: toxicity data, H1819; for IC50: NCI-H1819, Tables 3 and 4, read-out: IC50 (uM) vs indicated non-small cell lung cancer cell line H1819. It counts as cell-based, human. The method, then:
as §1, §2, §3

Where [1] appears, read: Homo sapiens, NCI-H2122, 12-point dose-response starting at 50 micromolar.
[2] abbreviates: Homo sapiens, NCI-H1819, 12-point dose-response starting at 50 micromolar.
Setting [3] is: 12-point dose-response starting at 50 micromolar.

pIC50: −log10 of the molar value. Like-named read-outs stand apart in the source and are kept apart here.

As to `COc1ccc(CCNC(=O)C(=O)Nc2ccc(F)cc2)cc1` [SW206961-1], the pIC50 in the assay on H2122 (setting [1]) is 6.54; in the assay with H1819 (setting [2]), ≤ 4.31.
For `COc1ccc(CCNC(=O)C(=O)N2CCCC2)cc1` [SW208049-1-A], the pIC50 in the assay on H2122 (setting [1]) and with H1819 (setting [2]) was ≤ 4.31 throughout.
For `COc1ccc2nc(NC(=O)c3ccc([C@H](N)c4ccccc4)cc3)sc2c1` [SW208110], the IC50 in the assay with H2122 (Homo sapiens) was 0.012 µM; with H1819 (Homo sapiens), 5.97 µM.
In the case of `COc1ccc(CCCNC(=O)Nc2ccc(OC)cc2)cc1` [SW208029-1-A], the pIC50 in the assay with H2122 (setting [1]) and in the assay on H1819 (setting [2]) was ≤ 4.31 each time.
With `COc1ccc(CCNC(=O)C(=O)Nc2ccc(Cl)cc2)cc1` [SW027951-2-A], the pIC50 with H2122 (setting [3]) was 6.55; in the assay on H1819 (setting [3]), ≤ 4.31.
As to `COc1ccc(CCNC(=O)C(=O)Nc2ccccn2)cc1` [SW208122-1-A], the pIC50 is 4.35 with H2122 (setting [1]) and ≤ 4.31 in the assay on H1819 (setting [2]).
Turning to `COc1ccc(CCNC(=O)C(=O)Nc2ccc(Cl)cc2C)cc1` [SW206926-1], the pIC50 in the assay with H2122 (setting [1]) and in the assay on H1819 (setting [2]) was ≤ 4.31 each time.
Regarding `O=C(NCCc1ccc(O)cc1)C(=O)Nc1ccc(Cl)cc1` [SW208023-1-A], the pIC50 in the assay on H2122 (setting [1]) was 6.59; with H1819 (setting [2]), 5.11.
Taken in the same sequence, the figures for `COc1ccc(CCNC(=O)C(=O)NCc2ccc(Cl)cc2)cc1` [SW208025-1-A] were ≤ 4.31 and ≤ 4.31.
Regarding `COc1ccc(CCNC(=O)c2ccc3cccc(O)c3n2)cc1` [SW208056-1-A], the pIC50 in the assay on H2122 (setting [1]) was 4.52; in the assay with H1819 (setting [2]), 4.53.
Consider `COc1ccc(CCNC(=O)Nc2ccc(OC)cc2)cc1` [SW208024-1-A], for which the pIC50 in the assay with H2122 (setting [1]) and with H1819 (setting [2]) was ≤ 4.31 throughout.
For `COc1ccc(CCNC(=O)C(=O)Nc2ccc(C)c(OC)c2)cc1` [SW206969-1], the pIC50 in the assay on H2122 (setting [1]) was ≤ 4.31; in the assay with H1819 (setting [2]), 4.31.
Taken in the same sequence, the figures for `COc1ccc(CCNC(=O)c2cnc3ccccc3n2)cc1` [SW208051-1-A] were ≤ 4.31 and ≤ 4.31.
For the molecule `COc1ccc2nc(NC(=O)c3ccc([C@@H](N)c4ccccc4)cc3)sc2c1` [SW208109], the half-maximal inhibitory concentration (IC50) in the assay on H2122 (Homo sapiens) was determined as 0.067 µM; in the assay on H1819 (Homo sapiens), 7.75 µM.
Turning to `COc1ccc(CCNC(=O)C(=O)Nc2c(C)cccc2Cl)cc1` [SW206868-1-A], the pIC50 with H2122 (setting [1]) and in the assay with H1819 (setting [2]) was ≤ 4.31 each time.
Take `COc1ccc(CCNC(=O)CNc2ccc(Cl)cc2)cc1` [SW208041-1-A]: the pIC50 is 4.32 with H2122 (setting [1]) and ≤ 4.31 in the assay on H1819 (setting [2]).
With `COc1ccc(CCNC(=O)C(=O)Nc2cccc(Br)n2)cc1` [SW208126-1-A], the pIC50 in the assay on H2122 (setting [1]) and with H1819 (setting [2]) was ≤ 4.31 throughout.
As for `COc1ccc(NC(=O)Nc2ccc(OC)cc2)cc1` [SW113878-2-A], the pIC50 with H2122 (setting [1]) and with H1819 (setting [2]) was ≤ 4.31 in each case.
In the case of `COc1ccc(CCNC(=O)C(=O)Nc2cc(F)ccc2Br)cc1` [SW206877-1-A], the pIC50 in the assay with H2122 (setting [1]) and in the assay on H1819 (setting [2]) was ≤ 4.31 in each case.
With `CCOc1ccc(CCNC(=O)C(=O)Nc2ccc(Cl)cc2)cc1` [SW208061-1-A], the pIC50 in the assay with H2122 (setting [1]) and with H1819 (setting [2]) was ≤ 4.31 throughout.
Consider `COc1ccc(CCNC(=O)C(=O)Nc2cc(C)cc(F)c2)cc1` [SW206881-1-A], for which the pIC50 is 5.00 in the assay with H2122 (setting [1]) and ≤ 4.31 with H1819 (setting [2]).
Consider `COc1ccc(CCNC(=O)C(=O)Nc2cccc(F)n2)cc1` [SW209136-1-A], for which the pIC50 in the assay with H2122 (setting [1]) and in the assay on H1819 (setting [2]) was ≤ 4.31 each time.
With `O=C(NCCc1ccccc1)C(=O)Nc1ccc(Cl)cc1` [SW113361-2-A], the pIC50 in the assay with H2122 (setting [1]) and with H1819 (setting [2]) was ≤ 4.31 each time.
For `COc1cccc(CCNC(=O)C(=O)Nc2ccc(Cl)cc2)c1` [SW206964-1], the pIC50 in the assay with H2122 (setting [1]) and in the assay on H1819 (setting [2]) was ≤ 4.31 throughout.
In the case of `COc1ccc(CCNC(=O)C(=O)NC2CCC2)cc1` [SW208032-1-A], the pIC50 with H2122 (setting [1]) and in the assay with H1819 (setting [2]) was ≤ 4.31 throughout.
As to `COc1ccc(CCNC(=O)c2nc3ccccc3c(=O)[nH]2)cc1` [SW208063-1-A], the pIC50 in the assay with H2122 (setting [1]) and in the assay with H1819 (setting [2]) was ≤ 4.31 each time.

One may read the IC50 as the concentration at which inhibition is half-maximal.
